Test results taken from patent US20120108669A1, “METHOD OF TREATING SLEEP DISORDERS USING EPLIVANSERIN” (SANOFI-AVENTIS, priority 2008, published 2012).

Experiments:
[1] = system: patients with chronic (primary) insomnia characterized by sleep maintenance difficulties; assay: Study LTE6217: 12-week patient-reported sleep parameters (daily sleep questionnaire, IVRS); assay type: in vivo, human; settings: 5 mg/day, MMRM, ITT; for Quality of sleep LS Mean (SEM) / Refreshing quality of sleep LS Mean (SEM) / pr-NAW LS Mean (SEM): mean change
From the text: The Phase 3 program of development of eplivanserin in the treatment of patients with chronic (primary) insomnia characterized by sleep maintenance difficulties consisted of 3 randomized, double-blind (DB), placebo-controlled, efficacy and safety studies designed to assess the efficacy of eplivanserin on sleep maintenance either using polysomnography (PSG) recordings (6-week study EFC6220) or patient-reported outcome (12-week studies LTE6217 and LTE6262) collected daily on sleep questionnaires.
They were all double-blind (DB), randomized, placebo-controlled studies. In all studies, treatment period was preceded by a one week, placebo run-in period, designed to check selection criteria for insomnia based on patient reported sleep parameters collected on the daily sleep questionnaires (Studies LTE6217, and LTE6262) or based on PSG recordings during two screening nights in a sleep laboratory (Study EFC6220). Treatment period was followed by a placebo run-out period of 2 weeks designed to assess the effect of abrupt treatment discontinuation.
Studies LTE6217 and LTE6262 measured the efficacy of eplivanserin in real life conditions of use at home by collecting daily sleep parameters reported by patients through an Interactive Voice Response System (IVRS). […]

[2] = system: patients exposed to eplivanserin; assay: Example 3: diverticulitis in pooled phase 2 and 3 trials; assay type: in vivo, human; settings: for Incidence of Diverticulitis by sub-group: all eplivanserin doses
From the text: Hereafter are the observations made in pooled phase 2 and 3 trials with eplivanserin or pharmaceutically acceptable salts or esters thereof.
The majority of patients were non-elderly, females, and Caucasian with a median age between 47 and 51 years across treatment groups.

[3] = all Phase 2-3 studies, all doses

CN(C)CCO/N=C(/C=C/c1ccc(O)cc1)c1ccccc1F [eplivanserin, (1Z, 2E)-1-(2-fluorophenyl)-3-(4-hydroxyphenyl)-prop-2-en-1-one-O-(2-dimethylaminoethyl)oxime]
Quality of sleep Difference from Placebo LS Mean ([1]; Week 6): −0.11
Refreshing quality of sleep Difference from Placebo LS Mean ([1]; Week 6): −0.11
pr-NAW Difference from Placebo LS Mean ([1]; Week 6): −0.39
Quality of sleep LS Mean (SEM) ([1]; Week 6): −0.65 (0.02)
Refreshing quality of sleep LS Mean (SEM) ([1]; Week 6): −0.62 (0.02)
pr-NAW LS Mean (SEM) ([1]; Week 6): −1.16 (0.04)
Quality of sleep Difference from Placebo LS Mean ([1]; Week 12): −0.10
Refreshing quality of sleep Difference from Placebo LS Mean ([1]; Week 12): −0.09
pr-NAW Difference from Placebo LS Mean ([1]; Week 12): −0.33
Quality of sleep LS Mean (SEM) ([1]; Week 12): −0.73 (0.03)
Refreshing quality of sleep LS Mean (SEM) ([1]; Week 12): −0.70 (0.03)
pr-NAW LS Mean (SEM) ([1]; Week 12): −1.27 (0.04)
final outcome of diverticulitis ([2]; 30 patients): Recovery was reported as final outcome in all patients, except 2
median time to onset of diverticulitis ([2]; 30 patients with diverticulitis): 58 days
Incidence of Diverticulitis by sub-group ([2]; Age groups (years): <65): 18/2636 (0.7%) (0.41 to 1.08)
Incidence of Diverticulitis by sub-group ([2]; Age groups (years): >=65): 12/394 (3.0%) (1.58 to 5.26)
Incidence of Diverticulitis by sub-group ([2]; BMI (kg/m2): 25-30): 17/1292 (1.3%) (0.77 to 2.10)
Incidence of Diverticulitis by sub-group ([2]; BMI (kg/m2): <25): 6/1121 (0.5%) (0.20 to 1.16)
Incidence of Diverticulitis by sub-group ([2]; BMI (kg/m2): >=30): 7/617 (1.1%) (0.46 to 2.32)
Incidence of Diverticulitis by sub-group ([2]; Concomitant drugs that inhibit prostaglandin synthesis: No): 15/2161 (0.7%) (0.39 to 1.14)
Incidence of Diverticulitis by sub-group ([2]; Concomitant drugs that inhibit prostaglandin synthesis: Yes): 15/869 (1.7%) (0.97 to 2.83)
Incidence of Diverticulitis by sub-group ([2]; Concomitant opioids: No): 27/2999 (0.9%) (0.59 to 1.31)
Incidence of Diverticulitis by sub-group ([2]; Concomitant opioids: Yes): 3/31 (9.7%) (2.04 to 25.75)
Incidence of Diverticulitis by sub-group ([2]; Creatinine clearance at baseline (ml/min): Mild: [50, 80[): 11/669 (1.6%) (0.82 to 2.92)
Incidence of Diverticulitis by sub-group ([2]; Creatinine clearance at baseline (ml/min): Moderate/Severe: <50): 1/44 (2.3%) (0.06 to 12.02)
Incidence of Diverticulitis by sub-group ([2]; Creatinine clearance at baseline (ml/min): Normal: >=80 or Missing): 18/2317 (0.8%) (0.46 to 1.23)
Incidence of Diverticulitis by sub-group ([2]; Gender: Female): 18/1651 (1.1%) (0.65 to 1.72)
Incidence of Diverticulitis by sub-group ([2]; Gender: Male): 12/1379 (0.9%) (0.45 to 1.52)
Incidence of Diverticulitis by sub-group ([2]; Medical history of constipation: No): 27/2943 (0.9%) (0.61 to 1.33)
Incidence of Diverticulitis by sub-group ([2]; Medical history of constipation: Yes): 3/87 (3.4%) (0.72 to 9.75)
Incidence of Diverticulitis by sub-group ([2]; Medical history of diverticular disease (includes diverticulitis): No): 18/2984 (0.6%) (0.36 to 0.95)
Incidence of Diverticulitis by sub-group ([2]; Medical history of diverticular disease (includes diverticulitis): Yes): 12/46 (26.1%) (14.27 to 41.13)
Incidence of Diverticulitis by sub-group ([2]; Medical history of diverticulitis: No): 23/3005 (0.8%) (0.49 to 1.15)
Incidence of Diverticulitis by sub-group ([2]; Medical history of diverticulitis: Yes): 7/25 (28.0%) (12.07 to 49.39)
Incidence of Diverticulitis by sub-group ([2]; Race: Asian/Oriental/Other): 0/138
Incidence of Diverticulitis by sub-group ([2]; Race: Black): 1/162 (0.6%) (0.02 to 3.39)
Incidence of Diverticulitis by sub-group ([2]; Race: Caucasian): 29/2730 (1.1%) (0.71 to 1.52)
exposure adjusted incidence rate of diverticulitis [2, 3]: 3.32 patients with an event per 100 patient-years
patients exposed who developed diverticulitis [2, 3]: 1%
patients exposed who developed diverticulitis ([2]; all Phase 2-3 studies, all doses, n/N): 30/3030
cumulative incidence rate of diverticulitis ([2]; at Week 24, all doses): about 1.6%
time of diverticulitis events after treatment initiation ([2]; clinical trials in patients with sleep disorders): two months on average
duration of diverticulitis episodes, mean ([2]; from the onset of the event): 23 days
duration of diverticulitis episodes, median ([2]; from the onset of the event): 17 days
